Experiments:
interferon γ (IFN-γ) = target: T1, interferon γ (IFN-γ) (Homo sapiens, UniProt P01579); assay: interferon γ binding to lipid-linked oligosaccharide array on nitrocellulose
T1 construct: purchased Sigma; host or cells: Escherichia coli
T1 sequence (P01579 24-166): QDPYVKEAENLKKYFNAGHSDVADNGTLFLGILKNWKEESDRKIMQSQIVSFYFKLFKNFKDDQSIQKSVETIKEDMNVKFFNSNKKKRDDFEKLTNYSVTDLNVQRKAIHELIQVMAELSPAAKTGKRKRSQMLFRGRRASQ
From the text: (§1) The lipid-linked oligosaccharides (in chloroform:methanol:water, 25:25:8 v/v) were applied by jet spray with a sample applicator (Linomat IV, Camag, Switzerland) as 2 mm bands for ‘miniarray’, or as […] spots for ‘microarray’ format, onto 0.45 μm nitrocellulose or 0.2 μm PVDF membranes (both from Bio-Rad, Hemel Hempstead, UK), or aluminium-backed silica gel plates (Merck). When fluorescent NGLs were applied onto the membranes, and examined directly under UV light, 1-2 pmol was clearly visible above the background on the PVDF, whereas on nitrocellulose, 5 pmol was required due to a high fluorescent background. For detection, therefore, the fluorescent NGLs were printed onto PVDF membranes; the non-fluorescent lipid-linked oligosaccharides were printed onto silica gel plates and detected with primulin stain.
(§2) For cytokine/chemokine-binding experiments, the membranes were blocked for 1 h with 3% (w/v) BSA in 10 mM Tris-HCl buffer containing 150 mM NaCl, 2 mM CaCl2 and 0.8 mM MgCl2 (TNCM), overlaid with INFγ or RANTES at 1 μg per ml diluted in TNCM/BSA, incubated for 16 h at 4° C.
(§3) The membranes were washed four times, for 30 min with 10 mM Tris-HCl buffer containing 20 mM NaCl, 5 mM CaCl2 and 2 mM MgCl2 (TNCM-L) to minimize elution of the bound proteins^31. […] Carbohydrate-binding experiments with NGLs resolved by TLC were performed as described^12.

chemokine RANTES = target: T2, chemokine RANTES (Homo sapiens, UniProt P13501); assay: RANTES binding to lipid-linked oligosaccharide array on nitrocellulose; details: array IDs 1-30 at 10 pmol per spot
T2 construct: purchased R&D systems; host or cells: Escherichia coli
T2 sequence (P13501 24-91): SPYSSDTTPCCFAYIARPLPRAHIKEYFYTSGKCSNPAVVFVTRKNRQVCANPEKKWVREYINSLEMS
From the text: as §1, §2, §3

monoclonal antibody C-14 = assay: C-14 antibody binding to lipid-linked oligosaccharide array on nitrocellulose; set-up: species or system murine; details: array IDs 1-30 on nitrocellulose, 10 pmol per spot
From the text: as §1
(§4) Experiments were carried out at ambient temperature unless stated otherwise. The dilutions of the antibodies used were those recommended by the manufacturers or providers. Concentrations where known are indicated. For antibody-binding experiments, the membranes were ‘blocked’ for 1 h with 3% (w/v) bovine serum albumin (BSA) in phosphate buffered saline (10 mM phosphate buffer containing 150 mM NaCl) pH 7.4 (PBS), and overlaid with for 2 h with the antibodies diluted in phosphate buffered saline containing 3% BSA (PBS/BSA). […]

[1] = target: T3, recombinant soluble L-selectin IgG chimera (Homo sapiens, UniProt P14151); assay: L-selectin binding to lipid-linked oligosaccharide array on nitrocellulose; details: array IDs 1-30 on nitrocellulose, 10 pmol per spot
T3 construct: recombinant soluble L-selectin IgG chimera; made in house; host or cells: transfected Chinese hamster ovary cells (provided by Dr Gray Shaw, Genetics Institute)
T3 sequence (P14151 39-332 limits assumed): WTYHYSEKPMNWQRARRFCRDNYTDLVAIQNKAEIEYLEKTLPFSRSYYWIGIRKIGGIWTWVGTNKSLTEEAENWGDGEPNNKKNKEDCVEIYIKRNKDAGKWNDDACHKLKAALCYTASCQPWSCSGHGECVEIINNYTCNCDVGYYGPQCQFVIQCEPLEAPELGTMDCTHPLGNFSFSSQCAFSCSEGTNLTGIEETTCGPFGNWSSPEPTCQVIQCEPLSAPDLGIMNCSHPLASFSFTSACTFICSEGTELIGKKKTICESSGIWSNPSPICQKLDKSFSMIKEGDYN
From the text: as §1
Selectin-binding experiments were carried out as above except that the membranes were ‘blocked’ 1% (w/v) casein in 10 mM Tris-HCl buffer pH 7.4 containing 50 mM CaCl2 and 150 mM NaCl (TBS/Ca) and overlaid for 2 h with L-selectin (1 μg/ml pre-complexed^42 with biotinylated anti-human IgG from Vector), or E-selectin (at 1 μg/ml) in TBS/Ca. Binding of L-selectin was detected by overlaying with HRP-conjugated streptavidin (Sigma), 10 μg/ml, in TBS/Ca containing 1% casein. Binding of E-selectin was detected by overlaying with biotinylated anti-human IgM (Sigma), 5 μg/ml, followed by the HRP-conjugated streptavidin.

[2] = system: monoclonal antibody HNK-1 (anti-HNK-1); assay: anti-HNK-1 binding to lipid-linked oligosaccharide arrays on nitrocellulose; details: array IDs 1-30 on nitrocellulose, 10 pmol per spot
From the text: as §1, §4

TSG-6 = TSG-6 (Homo sapiens, UniProt P98066); assay: TSG-6 binding to HA and HA NGL on nitrocellulose-coated FastSlide; details: 2 mm bands on FastSlide, DAB colour, FIG. 9
Chain of TSG-6 (P98066 18-277, species assumed): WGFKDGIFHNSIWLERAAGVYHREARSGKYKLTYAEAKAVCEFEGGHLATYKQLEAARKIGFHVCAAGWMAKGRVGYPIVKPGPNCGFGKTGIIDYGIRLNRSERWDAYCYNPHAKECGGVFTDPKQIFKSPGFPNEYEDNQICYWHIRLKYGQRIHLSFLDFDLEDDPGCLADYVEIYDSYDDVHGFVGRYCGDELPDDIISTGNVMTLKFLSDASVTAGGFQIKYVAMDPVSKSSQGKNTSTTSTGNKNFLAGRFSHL
From the text: NGL samples in organic-based solvent mixture (chloroform/methanol/water 25:25:8, by vol), and also polysaccharides, glycosaminoglycans (GAGs) and glycoproteins in water, were arrayed with N2-assisted jet spray as 1-2 mm bands or 150 μm spots.
Binding to the arrayed samples was detected using biotinylated antibodies directed to the proteins being investigated, followed by conventional ELISA-DAB colour reaction or by using CyS-labelled streptavidin.
Similarly, different amounts of hyaluronic acid polysaccharide (HA) (5 to 500 ng) and its oligosaccharide derived NGL, HA 8mer-DHPE (0.05 to 5 pmol), were applied as 2 mm bands onto a nitrocellulose coated FastSlide. The interactions of TSG-6 (a protein which can bind to the HA) with the carbohydrate-containing molecules on the support material, HA and the HA NGL, are shown in FIG. 9.

[3] = system: anti-SSEA-1 monoclonal antibody; assay: anti-SSEA-1 binding to lipid-linked oligosaccharide arrays on membranes; set-up: species or system murine; details: array IDs 1-30 on nitrocellulose, 10 pmol per spot
From the text: as §1, §4

[4] = system: anti-L5 monoclonal antibody; assay: anti-L5 binding to lipid-linked oligosaccharide arrays on nitrocellulose; set-up: species or system rat; details: array IDs 1-30 on nitrocellulose, 10 pmol per spot
From the text: as §1, §4

[5] = array IDs 1-30 printed at 1 pmol per spot
[6] = array IDs 1-30 at 10 pmol per spot

3′,6-SU-Le^x-5 [ID 17]
IFN-γ binding (interferon γ (IFN-γ); [5]): weak binding

3′-SU-Le^x-5 [ID 16]
IFN-γ binding (interferon γ (IFN-γ); [5]): weak binding

6′-SU-3′-SA-Le^x5 [ID 19]
IFN-γ binding (interferon γ (IFN-γ); [6]): additional or increased binding signals | RANTES binding (chemokine RANTES): additional or increased binding signals

CC(=O)NC1C(OC2C(O)C(CO)OC(OC3C(CO)OC(O)C(O)C3O)C2O)OC(CO)C(OC2OC(CO)C(O)C(O)C2OC2OC(C)C(O)C(O)C2O)C1OC1OC(C)C(O)C(O)C1O (stereo not shown) [ID 12, lacto-N-neo-difucohexaose I]
binding of C-14 antibody (monoclonal antibody C-14): bound

CC(=O)NC1C(O)CC(OC2C(O)C(CO)OC(OC3C(CO)OC(OC4C(O)C(CO)OC(OC5C(CO)OC(O)C(O)C5O)C4O)C(NC(C)=O)C3OC3OC(C)C(O)C(O)C3O)C2O)(C(=O)O)OC1C(O)C(O)CO (stereo not shown) [ID 14, 3′-SA-Le^x-5]
L-selectin binding [1]: weak

O=C(O)C1=C[C@H](O)[C@@H](OS(=O)(=O)O)[C@H](O[C@H]2[C@H](O)[C@@H](NS(=O)(=O)O)[C@@H](O)O[C@@H]2COS(=O)(=O)O)O1 [ID 28, HS/HEP 2mer]
L-selectin binding [1]: binding | IFN-γ binding (interferon γ (IFN-γ); [5]): clear preference

HNK-1 [ID 20]
binding of anti-HNK-1 [2]: bound | L-selectin binding [1]: binding | IFN-γ binding (interferon γ (IFN-γ); [6]): additional or increased binding signals | RANTES binding (chemokine RANTES): additional or increased binding signals

Man5-phosphate [ID 21]
L-selectin binding [1]: binding

hyaluronic acid [HA polysaccharide]
sensitivity of detection of TSG-6 binding (TSG-6): nanograms

lacto-N-fucopentaose III [ID 10]
binding of anti-SSEA-1 [3]: bound | binding of anti-L5 [4]: bound

Reference: patent US20040259142A1, “Products and methods” (Imperial College Innovations Limited, priority 2003, published 2004)
